Measurements taken from US5117052A, “Physiologically active substances, benastatins A and B, and production and use thereof” (priority 1990, dated 1992).
≈ marks a conversion by molar mass, not a printed value.

How the values were obtained:
Pyricularia oryzae = assay: microbe, parasite or virus in culture; type: cell-based; details: read-out: Minimum growth-inhibition concentration
[1] = test system: Mycabacterium smegmatis ATCC607; assay: Agar dilution assay, minimum growth inhibition concentration; type: cell-based; details: Mycabacterium smegmatis ATCC607; read-out: Minimum growth-inhibition concentration
[2] = test system: Shigella dysenteriae JS11910; assay: as above; type: cell-based; details: JS11910, read-out: Minimum growth-inhibition concentration
[3] = test system: Staphylococcus aureus No. 17 (MRSA); assay: as above; type: cell-based; details: read-out: Minimum growth-inhibition concentration
[4] = test system: Staphylococcus aureus No. 5 (MRSA); assay: as above; type: cell-based; details: read-out: Minimum growth-inhibition concentration
[5] = test system: spleen cells (LPS lymphocyte blast formation reaction); assay: Suppression of LPS-induced lymphocyte blast formation, [3H]-thymidine uptake (Test 2); type: cell-based, BALB/c mouse; details: Mus musculus, LPS 100 μg/ml, 72 hours, read-out: IC50, 50% suppression of lymphocyte blast formation (LPS)
Description: (§1) A pharmacological test was made about a suppression activity of benastatins on the lymphocyte blast formation reaction.
(§2) In this test, use was made of an RPMI 1640 culture medium supplemented with 20% bovin fetus serum, 25 mM Hepes buffer, 100 μg/ml streptomycin and 100 units/ml penicillin G. The cultivation was effected by using microplate (COSTAR) with a flat bottom and with 96 wells. As mitogens, use was made of lipopolysaccharide (LPS) and concanavalin A (Con A) at concentrations of 100 and 5 μg/ml, respectively.
(§3) After spleen cells were taken out from BALB/c mouse (female, 25 weeks old), a unicellular suspension of the spleen cells was prepared, and then subjected to a hyper shock treatment to remove erythrocytes therefrom.
(§4) Each well was charged with 0.2 ml of a sample which contained 2×10^5 spleen cells and the test compound at a predetermined concentration. The cultivation was conducted for 72 hours. Before 8 hours from the completion of cultivation, each well was further charged with 37 KBq of [^3 H]-thymidine to determine the amount of the thymidine taken into the cells. […]

[6] = test system: Klebsiella pneumoniae PCI602; assay: Agar dilution assay, minimum growth inhibition concentration; type: cell-based; details: Klebsiella pneumoniae PCI602; read-out: Minimum growth-inhibition concentration
[7] = test system: spleen cells (Con A lymphocyte blast formation reaction); assay: Suppression of Con A-induced lymphocyte blast formation, [3H]-thymidine uptake (Test 2); type: cell-based, BALB/c mouse; details: Mus musculus, Con A 5 μg/ml, 72 hours, read-out: IC50, 50% suppression of lymphocyte blast formation (Con A)
Description: as §1, §2, §3, §4

[8] = test system: Pseudomanas aeruginosa A3; assay: Agar dilution assay, minimum growth inhibition concentration; type: cell-based; details: Pseudomanas aeruginosa A3; read-out: Minimum growth-inhibition concentration
Aspergillus niger F-16 = assay: as above; type: cell-based; details: F16; Aspergillus niger F-16; read-out: Minimum growth-inhibition concentration
Escherichia coli NIHJ = assay: as above; type: cell-based; details: Escherichia coli NIHJ; read-out: Minimum growth-inhibition concentration
Candida tropicalis F-1 = assay: as above; type: cell-based; details: F1; Candida tropicalis F-1; read-out: Minimum growth-inhibition concentration
Proteus rettgeri GN311 = assay: Agar dilution assay, minimum growth inhibition concentration; type: cell-based; details: Providencia rettgeri; Proteus rettgeri GN311; read-out: Minimum growth-inhibition concentration
glutathione transferase = biological target: T1, glutathione transferase (Rattus norvegicus, UniProt P04905); assay: Glutathione transferase inhibition activity (3,4-dichloronitrobenzene/glutathione, absorption at 345 nm); type: biochemical
T1 construct: obtained from a homogenate of rat liver; from tissue; host or cells: rat liver homogenate, partially purified by DEAE-cellulose column and ammonium sulfate salting-out
Description: The glutathione transferase inhibition activity was determined by a modified method based on the known method described in Biochemical and Biophysical Research Communications, 112, 980-985 (1983).
A test tube was charged with a solution mixture consisting of (a) 0.1 ml of 90 mM glutathione (reduction type), (b) 0.05 ml of 20 mM 3,4-dichloronitrobenzene, (c) 1.7 ml of 0.1M potassium phosphate buffer solution (pH 7.4) and (d) 0.1 ml of an aqueous solution containing the test compound. The solution mixture was heated to 37° C. for 3 minutes, and admixed with 0.05 ml of a glutathione transferase solution to effect a reaction at 37° C. for 30 minutes. The glutathione transferase solution employed was one which had been obtained from a homogenate of rat liver and which had been patially refined by means of a DEAE-cellulose column and of salting out-operation with ammonium sulfate.
After the completion of the reaction, the sample was measured for the light absorption (a) at 345 nm. At the same time, a control sample which was free of the test compound and which contained only the buffer solution was measured for the light absorption (b) at 345 nm.
The glutathione transferase inhibition activity was determined according to the formula: […]
IC50, which is the concentration of a test compound required for 50% inhibition, was recorded.

[9] = test system: Saccharomyces cerevisiae F-7; assay: Agar dilution assay, minimum growth inhibition concentration; type: cell-based; details: F7; Saccharomyces cerevisiae F-7; read-out: Minimum growth-inhibition concentration
mouse = assay: Toxicity on administration to the abdominal cavity; type: in vivo; details: 100 mg/kg
From the text: Benastatins A and B were each administered to the abdominal cavity of a mouse to examine the toxicity thereof.

[10] = test system: Bacillus subtilis NRRL B-558; assay: Agar dilution assay, minimum growth inhibition concentration; type: cell-based; details: NRRLB558
Description: (§5) The minimum of microorganism growth inhibition concentrations of benastatins A and B were determined for various bacteria, east and fungi according to a conventional agar dilution assay method. It will be seen from Table 1 that benastatins A and B have a satisfactory antimicrobial activity, particularly against gram-positive bacteria, etc.

[11] = test system: Staphylococcus aureus MS9610; assay: as above; type: cell-based
Description: as §5

[12] = test system: Cryptococcus neoformans F-10; assay: as above; type: cell-based; details: F10
Description: as §5

Micrococcus luteus FDA16 = assay: as above; type: cell-based
Description: as §5

Cochliobolus miyabeanus = assay: as above; type: cell-based; details: Bipolaris oryzae
Description: as §5

[13] = test system: Staphylococcus aureus Smith; assay: as above; type: cell-based
Description: as §5

[14] = test system: Bacillus cereus ATCC10702; assay: as above; type: cell-based
Description: as §5

[15] = test system: Corynebacterium bovis 1810; assay: as above; type: cell-based
Description: as §5

Salmonella typhi T-63 = assay: as above; type: cell-based; details: Salmonella enterica

T1 sequence (P04905 2-218 limits assumed): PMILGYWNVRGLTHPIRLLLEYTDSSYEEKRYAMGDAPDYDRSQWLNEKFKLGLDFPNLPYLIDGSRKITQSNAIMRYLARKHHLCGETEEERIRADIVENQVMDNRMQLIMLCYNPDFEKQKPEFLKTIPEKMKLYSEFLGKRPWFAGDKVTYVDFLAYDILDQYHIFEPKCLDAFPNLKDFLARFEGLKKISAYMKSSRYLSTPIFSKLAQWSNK

For `CCCCCc1cc2ccc3c(O)c4c(cc3c2c(O)c1C(=O)O)C(C)(C)c1cc(O)cc(O)c1C4=O` [Benastatin A, benastatin A], the MIC (Pyricularia oryzae) was 50 mg/L (≈ 99.9 µM), the MIC [1] was 50 mg/L (≈ 99.9 µM) and the MIC [2] was > 50 mg/L. It also gave an MIC [3] of 3.12 mg/L (≈ 6.23 µM), an MIC [4] of 3.12 mg/L (≈ 6.23 µM) and an IC50 [5] of 7.7 mg/L (≈ 15.4 µM). The MIC [6] was > 50 mg/L, the IC50 [7] was 7.3 mg/L (≈ 14.6 µM) and the MIC [8] was > 50 mg/L. For the same compound, the MIC (Aspergillus niger F-16) was > 50 mg/L, the MIC (Escherichia coli NIHJ) was 100 mg/L (≈ 200 µM) and the MIC (Candida tropicalis F-1) was > 50 mg/L. The “Solubility in organic solvents” value (Solubility; dimethyl sulfoxide, methanol, acetone, ethyl acetate) was “soluble”, the Solubility in water (Solubility; water) was “insoluble” and the MIC (Proteus rettgeri GN311) was 50 mg/L (≈ 99.9 µM). For the same compound, the IC50 (glutathione transferase) was 4.99 µM, the MIC [9] was > 100 mg/L and the Toxicity (mouse) was “No toxicity was observed”. It also gave an MIC [10] of 3.12 mg/L (≈ 6.23 µM), an MIC [11] of 3.12 mg/L (≈ 6.23 µM) and an MIC [12] of 50 mg/L (≈ 99.9 µM). The MIC (Micrococcus luteus FDA16) was 3.12 mg/L (≈ 6.23 µM), the MIC (Cochliobolus miyabeanus) was > 25 mg/L and the MIC [13] was 3.12 mg/L (≈ 6.23 µM). For the same compound, the MIC [14] was 3.12 mg/L (≈ 6.23 µM), the MIC [15] was 3.12 mg/L (≈ 6.23 µM) and the MIC (Salmonella typhi T-63) was > 50 mg/L.
